Assay results reported in patent US9212163B2, “Pesticidal compositions and processes related thereto” (Dow AgroSciences LLC, priority 2012, dated 2015).

Tested on: Beet Armyworm (BAW) (Spodoptera exigua)
Assay: Bioassay on Beet Armyworm (BAW), 128-well diet tray assay
Assay type: in vivo
Details: Table 3: Assay Results Part 1
Procedure: Certain molecules disclosed in this document were tested against BAW, CEW and CL using procedures described in the following examples. In the reporting of the results, the “BAW & CEW & CL Rating Table” was used (See Table Section).
Bioassays on BAW (Spodoptera exigua)
Bioassays on BAW were conducted using a 128-well diet tray assay. One to five second instar BAW larvae were placed in each well (3 mL) of the diet tray that had been previously filled with 1 mL of artificial diet to which 50 μg/cm^2 of the test compound (dissolved in 50 μL of 90:10 acetone-water mixture) had been applied (to each of eight wells) and then allowed to dry. Trays were covered with a clear self-adhesive cover, and held at 25° C., 14:10 light-dark for five to seven days. Percent mortality was recorded for the larvae in each well; activity in the eight wells was then averaged. The results are indicated in the tables entitled “Table 3: Assay Results Part 1” and “Table 4: Assay Results Part 2” (See Table Section).

Row | SMILES | BAW Rating
1 | Cc1cc(/C=C/C(c2cc(Cl)cc(Cl)c2)C(F)(F)F)ccc1C(=O)NCc1nnc(C2CC2)o1 (stereo not drawn) [AC89, (E)-N-((5-Cyclopropyl-1,3,4-oxadiazol-2-yl)methyl)-4-(3-(3,5-dichlorophenyl)-4,4,4-trifluorobut-1-en-1-yl)-2-methylbenzamide] | A (50-100)
2 | FC(F)(F)CNC(=S)CNC(=S)c1ccc(/C=C/C(c2cc(Cl)c(Cl)c(Cl)c2)C(F)(F)F)cc1Br (stereo not drawn) [AC90, (E)-2-Bromo-N-(2-thioxo-2-((2,2,2-trifluoroethyl)amino)ethyl)-4-(4,4,4-trifluoro-3-(3,4,5-trichlorophenyl)but-1-en-1-yl)benzothioamide] | A (50-100)
3 | O=C(CNC(=S)c1ccc(/C=C/C(c2cc(Cl)c(Cl)c(Cl)c2)C(F)(F)F)cc1Br)NCC(F)(F)F (stereo not drawn) [AC91, (E)-2-(2-Bromo-4-(4,4,4-trifluoro-3-(3,4,5-trichlorophenyl)but-1-en-1-yl)phenylthioamido)-N-(2,2,2-trifluoroethyl)acetamide] | A (50-100)
4 | O=C(NCC(=S)NCC(F)(F)F)c1ccc(/C=C/C(c2cc(Cl)c(Cl)c(Cl)c2)C(F)(F)F)cc1Br (stereo not drawn) [AC92, (E)-2-Bromo-N-(2-thioxo-2-((2,2,2-trifluoroethyl)amino)ethyl)-4-(4,4,4-trifluoro-3-(3,4,5-trichlorophenyl)but-1-en-1-yl)benzamide] | A (50-100)
5 | Cc1cc(/C=C\C(c2cc(Cl)cc(Cl)c2)C(F)(F)F)ccc1C(=O)NCC(=O)NC1CC1 (stereo not drawn) [AC93] | A (50-100)
6 | O=C(CNC(=O)c1ccc(/C=C\C(c2cc(Cl)c(Cl)c(Cl)c2)C(F)(F)F)cc1Br)NCC(F)(F)F (stereo not drawn) [AC95, (Z)-2-Bromo-N-(2-oxo-2-((2,2,2-trifluoroethyl)amino)ethyl)-4-(4,4,4-trifluoro-3-(3,4,5-trichlorophenyl)but-1-en-1-yl)benzamide] | A (50-100)
7 | O=C(CNC(=O)c1ccc(/C=C/C(c2cc(Cl)c(F)c(Cl)c2)C(F)(F)F)cc1[N+](=O)[O-])NCC(F)(F)F (stereo not drawn) [AC98] | A (50-100)
8 | O=C(CNC(=O)c1ccc(/C=C/C(c2ccc(F)c(Cl)c2)C(F)(F)F)cc1Br)NCC(F)(F)F (stereo not drawn) [AC99] | A (50-100)
9 | CC(=O)N1CCC(NC(=O)c2ccc(/C=C/C(c3cc(Cl)c(Cl)c(Cl)c3)C(F)(F)F)cc2Br)CC1 (stereo not drawn) [AC103, (E)-N-(1-Acetylpiperidin-4-yl)-2-bromo-4-(4,4,4-trifluoro-3-(3,4,5-trichlorophenyl)but-1-en-1-yl)benzamide] | A (50-100)
10 | O=C(NC1CCN(C(=O)CC(F)(F)F)CC1)c1ccc(/C=C/C(c2cc(Cl)c(Cl)c(Cl)c2)C(F)(F)F)cc1Br (stereo not drawn) [AC104, (E)-2-Bromo-4-(4,4,4-trifluoro-3-(3,4,5-trichlorophenyl)but-1-en-1-yl)-N-(1-(3,3,3-trifluoropropanoyl)piperidin-4-yl)benzamide] | A (50-100)
11 | CN1CCC(NC(=O)c2ccc(/C=C/C(c3cc(Cl)c(Cl)c(Cl)c3)C(F)(F)F)cc2Br)CC1 (stereo not drawn) [AC106, (E)-2-Bromo-N-(1-methylpiperidin-4-yl)-4-(4,4,4-trifluoro-3-(3,4,5-trichlorophenyl)but-1-en-1-yl)benzamide] | A (50-100)
12 | N#CCN1CCC(NC(=O)c2ccc(/C=C/C(c3cc(Cl)c(Cl)c(Cl)c3)C(F)(F)F)cc2Br)CC1 (stereo not drawn) [AC107] | B (More than 0-Less than 50)
13 | O=C(NC1CCN(C2COC2)CC1)c1ccc(/C=C/C(c2cc(Cl)c(Cl)c(Cl)c2)C(F)(F)F)cc1Br (stereo not drawn) [AC108, (E)-2-Bromo-N-(1-(oxetan-3-yl)piperidin-4-yl)-4-(4,4,4-trifluoro-3-(3,4,5-trichlorophenyl)but-1-en-1-yl)benzamide] | B (More than 0-Less than 50)
14 | CONC(=O)CNC(=O)c1ccc(/C=C/C(c2cc(Cl)c(Cl)c(Cl)c2)C(F)(F)F)cc1Br (stereo not drawn) [AC110] | A (50-100)
15 | C=CCNC(=O)CNC(=O)c1ccc(/C=C/C(c2cc(Cl)c(Cl)c(Cl)c2)C(F)(F)F)cc1Br (stereo not drawn) [AC111] | A (50-100)
16 | O=C(NCCc1ccc(Cl)nc1)c1ccc(/C=C/C(c2cc(Cl)c(Cl)c(Cl)c2)C(F)(F)F)cc1Br (stereo not drawn) [AC113] | B (More than 0-Less than 50)
17 | O=C(NC1CCNCC1)c1ccc(/C=C/C(c2cc(Cl)c(Cl)c(Cl)c2)C(F)(F)F)cc1Br (stereo not drawn) [AC114, (E)-2-Bromo-N-(piperidin-4-yl)-4-(4,4,4-trifluoro-3-(3,4,5-trichlorophenyl)but-1-en-1-yl)benzamide] | A (50-100)
18 | Cc1cc(/C=C/C(c2cc(Cl)cc(Cl)c2)C(F)(F)F)ccc1C(=S)NCc1ccc(Cl)nc1 (stereo not drawn) [AC115, (E)-N-((6-Chloropyridin-3-yl)methyl)-4-(3-(3,5-dichlorophenyl)-4,4,4-trifluorobut-1-en-1-yl)-2-methylbenzothioamide] | A (50-100)
19 | Cc1cc(/C=C/C(c2cc(Cl)cc(Cl)c2)C(F)(F)F)ccc1C(=O)N(C)Cc1ccc(Cl)nc1 (stereo not drawn) [AC117] | A (50-100)
20 | Cc1cc(/C=C/C(c2cc(Cl)cc(Cl)c2)C(F)(F)F)ccc1C(=O)NCC1CCCO1 (stereo not drawn) [AC118] | A (50-100)
21 | O=C(CC(F)(F)F)NC1CCCc2cc(/C=C/C(c3cc(Cl)c(Cl)c(Cl)c3)C(F)(F)F)ccc21 (stereo not drawn) [BC5] | A (50-100)
22 | O=C(NC1CCc2cc(/C=C/C(c3cc(Cl)c(Cl)c(Cl)c3)C(F)(F)F)ccc21)C1CC1 (stereo not drawn) [BC6] | A (50-100)
23 | O=C(NC1CCCc2cc(/C=C/C(c3cc(Cl)c(Cl)c(Cl)c3)C(F)(F)F)ccc21)C1CC1 (stereo not drawn) [BC7] | A (50-100)
24 | O=C(CC(F)(F)F)NC1CCc2cc(/C=C/C(c3cc(Cl)c(F)c(Cl)c3)C(F)(F)F)ccc21 (stereo not drawn) [BC8] | A (50-100)

Row | SMILES | BAW Rating
25 | O=C(Cc1ccc(Cl)nc1)NC1CCc2cc(/C=C/C(c3cc(Cl)c(F)c(Cl)c3)C(F)(F)F)ccc21 (stereo not drawn) [BC9] | A (50-100)
26 | Fc1c(Cl)cc(C(/C=C/c2ccc3c(c2)CCC3NCCC(F)(F)F)C(F)(F)F)cc1Cl (stereo not drawn) [BC10, (E)-5-(3-(3,5-Dichloro-4-fluorophenyl)-4,4,4-trifluorobut-1-en-1-yl)-N-(3,3,3-trifluoropropyl)-2,3-dihydro-1H-inden-1-amine] | A (50-100)
27 | O=C(CC(F)(F)F)NCC(=O)n1ccc2cc(/C=C/C(c3cc(Cl)c(F)c(Cl)c3)C(F)(F)F)ccc21 (stereo not drawn) [BC13, (E)-N-(2-(5-(3-(3,5-Dichloro-4-fluorophenyl)-4,4,4-trifluorobut-1-en-1-yl)-1H-indol-1-yl)-2-oxoethyl)-3,3,3-trifluoropropanamide] | A (50-100)
28 | O=C(Cn1ncc2cc(/C=C/C(c3cc(Cl)c(F)c(Cl)c3)C(F)(F)F)ccc2c1=O)NCC(F)(F)F (stereo not drawn) [BC14, (E)-2-(6-(3-(3,5-Dichloro-4-fluorophenyl)-4,4,4-trifluorobut-1-en-1-yl)-1-oxophthalazin-2(1H)-yl)-N-(2,2,2-trifluoroethyl)acetamide] | A (50-100)
29 | O=C(NCc1ccc(/C=C/C(c2cc(Cl)cc(Cl)c2)C(F)(F)F)cc1)C1CC1 (stereo not drawn) [CC2] | A (50-100)
30 | O=C(CC(F)(F)F)NCc1ccc(/C=C/C(c2cc(Cl)cc(Cl)c2)C(F)(F)F)cc1 (stereo not drawn) [CC3] | A (50-100)
31 | CCC(=O)NCc1ccc(/C=C/C(c2cc(Cl)cc(Cl)c2)C(F)(F)F)cc1 (stereo not drawn) [CC4] | A (50-100)
32 | O=C(NCc1ccc(/C=C/C(c2cc(Cl)c(Cl)c(Cl)c2)C(F)(F)F)cc1)C1CC1 (stereo not drawn) [CC5] | A (50-100)
33 | O=C(CC(F)(F)F)NCc1ccc(/C=C/C(c2cc(Cl)c(Cl)c(Cl)c2)C(F)(F)F)cc1 (stereo not drawn) [CC6] | A (50-100)
34 | CC(=O)NCc1ccc(/C=C/C(c2cc(Cl)cc(Cl)c2)C(F)(F)F)cc1Cl (stereo not drawn) [CC7, (E)-N-(2-Chloro-4-(3-(3,5-dichlorophenyl)-4,4,4-trifluorobut-1-en-1-yl)benzyl)acetamide] | A (50-100)
35 | O=C(NCc1ccc(/C=C/C(c2cc(Cl)cc(Cl)c2)C(F)(F)F)cc1Cl)C1CC1 (stereo not drawn) [CC8] | A (50-100)
36 | O=C(CC(F)(F)F)NCc1ccc(/C=C/C(c2cc(Cl)cc(Cl)c2)C(F)(F)F)cc1Cl (stereo not drawn) [CC9] | A (50-100)
37 | O=C(NCc1ccc(/C=C/C(c2cc(Cl)c(Cl)c(Cl)c2)C(F)(F)F)cc1Cl)C1CC1 (stereo not drawn) [CC11] | A (50-100)
38 | O=C(Cc1ccc(Cl)nc1)NCc1ccc(/C=C/C(c2cc(Cl)c(Cl)c(Cl)c2)C(F)(F)F)cc1Cl (stereo not drawn) [CC14] | A (50-100)
39 | O=C(NCc1ccc(/C=C/C(c2cc(Cl)c(F)c(Cl)c2)C(F)(F)F)cc1Cl)C1CC1 (stereo not drawn) [CC15] | A (50-100)
40 | O=C(NCc1ccc(/C=C/C(c2ccc(Cl)c(Cl)c2)C(F)(F)F)cc1Cl)C1CC1 (stereo not drawn) [CC17] | A (50-100)
41 | O=C(CC(F)(F)F)NCc1ccc(/C=C/C(c2ccc(Cl)c(Cl)c2)C(F)(F)F)cc1Cl (stereo not drawn) [CC18] | A (50-100)
42 | CSCCC(=O)NCc1ccc(/C=C/C(c2cc(Cl)c(Cl)c(Cl)c2)C(F)(F)F)cc1Cl (stereo not drawn) [CC19] | A (50-100)
43 | FC(F)(F)C(/C=C/c1ccc(CNC(=S)C2CC2)c(Cl)c1)c1cc(Cl)c(Cl)c(Cl)c1 (stereo not drawn) [CC20] | A (50-100)
44 | O=C(NCc1ccc(/C=C/C(c2cc(Cl)cc(Cl)c2)C(F)(F)F)cc1C(F)(F)F)C1CC1 (stereo not drawn) [CC21] | A (50-100)
45 | O=C(NCc1ccc(/C=C/C(c2cc(Cl)c(Cl)c(Cl)c2)C(F)(F)F)cc1C(F)(F)F)C1CC1 (stereo not drawn) [CC22] | A (50-100)
46 | O=C(NCc1ccc(/C=C/C(c2cc(Cl)c(Cl)c(Cl)c2)C(F)(F)F)cc1C(F)(F)F)c1cccnc1 (stereo not drawn) [CC23] | A (50-100)
47 | O=C(CC(F)(F)F)NCc1ccc(/C=C/C(c2cc(Cl)c(Cl)c(Cl)c2)C(F)(F)F)cc1C(F)(F)F (stereo not drawn) [CC24] | A (50-100)
48 | O=C(CC(F)(F)F)NCc1ccc(/C=C/C(c2cc(Cl)c(Cl)c(Cl)c2)C(F)(F)F)cc1Br (stereo not drawn) [CC25] | A (50-100)
